Some test systems named below: EKVX NSCLC; OVCAR-8 ovarian; SR leukemia; OVCAR-5 ovarian; A549 NSCLC; UO-31 renal; 786-0 renal; MCF7 breast; HOP-92 NSCLC; SF-539 CNS.
Test in all cases: NCI tumour cell line growth inhibition, 48 h

Several values for one entry are separate records, joined by “and”; a condition that tells them apart may be missing. Identical values can stand only once.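 Protocol summary: plate cells (96-well), add compound at 5 concentrations, incubate 48 h, interpolate endpoints linearly. At the GI50, growth is halved. Definition used: TGI = concentration required for complete inhibition of growth.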

`COc1ccc(-c2cc(-c3ccc(Nc4nc(Nc5ccc(Cl)cc5)nc(Nc5ccc(Cl)cc5)n4)cc3)no2)cc1`: the GI50 in the test on EKVX NSCLC is 10.2 µM; in the test on OVCAR-8 ovarian, 12.6 µM; in the test on SR leukemia, 2.06 µM; in the test with OVCAR-5 ovarian, 19.1 µM; with A549 NSCLC, 16.4 µM; in the test on UO-31 renal, 5.36 µM. The GI50 in the test with 786-0 renal was 5.42 µM; in the test on MCF7 breast, 7.86 µM; with HOP-92 NSCLC, 1.91 µM; in the test on SF-539 CNS, 17.2 µM. Moreover, the TGI in the test on EKVX NSCLC worked out at 85.6 µM; with OVCAR-8 ovarian it was 55.3 µM; in the test with SR leukemia, 6.5 µM; in the test on OVCAR-5 ovarian it was 73.5 µM; with A549 NSCLC, 84.7 µM; with UO-31 renal, 35.2 µM. Further, the TGI worked out at 25.5 µM in the test on 786-0 renal, 47.5 µM in the test on MCF7 breast, 6.26 µM with HOP-92 NSCLC and 57.8 µM in the test with SF-539 CNS.

In the case of `O=c1oc2ccc(Cl)cc2c(=O)n1-c1ccc(Cl)cc1F`, the GI50 was 0.688 µM with EKVX NSCLC; 0.721 µM in the test on OVCAR-8 ovarian; 0.462 µM in the test with SR leukemia; 3.83 µM with OVCAR-5 ovarian; 0.998 µM with A549 NSCLC; 0.188 µM in the test with UO-31 renal. The GI50 in the test on 786-0 renal is 1.76 µM; with MCF7 breast, 0.593 µM; in the test on HOP-92 NSCLC it was 0.143 µM; with SF-539 CNS, 0.462 µM. Moreover, the TGI in the test with EKVX NSCLC is 11.3 µM; in the test with OVCAR-8 ovarian, > 21.7 µM; in the test with OVCAR-5 ovarian, > 95 µM; in the test with A549 NSCLC it was > 31.6 µM; with UO-31 renal it was 1.62 µM; with 786-0 renal it was 4.8 µM. For the same compound, the TGI in the test on MCF7 breast came out at 23.8 µM; with HOP-92 NSCLC, 0.49 µM; in the test with SF-539 CNS, 3.7 µM.

`CN(C)CC/C=C1\c2ccccc2Sc2ccc(Cl)cc21`: the GI50 is 6.47 µM in the test with EKVX NSCLC; 1.99 µM in the test on OVCAR-8 ovarian; 3.29 µM in the test on SR leukemia; 4.61 µM in the test with OVCAR-5 ovarian; 2.87 µM in the test on A549 NSCLC; 2.96 µM in the test on UO-31 renal. The GI50 in the test on 786-0 renal is 2.5 µM; with MCF7 breast it was 1.81 µM; in the test with HOP-92 NSCLC, 0.379 µM; in the test with SF-539 CNS, 3.61 µM. The TGI with EKVX NSCLC was 22.3 µM and 22.8 µM; in the test on OVCAR-8 ovarian, 4.44 µM and 32.8 µM; in the test with SR leukemia, 8.76 µM; in the test with OVCAR-5 ovarian, 17.9 µM and 27.8 µM; with A549 NSCLC it was 11.4 µM and 28.9 µM; in the test with UO-31 renal, 15.6 µM and 21.5 µM. Also, the TGI in the test on 786-0 renal is 6.88 µM and 25.6 µM; with MCF7 breast, 3.37 µM and 30.3 µM; with HOP-92 NSCLC it was 3.39 µM and 18.7 µM; in the test with SF-539 CNS, 11.2 µM and 36.2 µM.

As for `O=C1C=C(Nc2ccccc2)c2ncccc2C1=O`, the GI50 in the test with EKVX NSCLC was 1.37 µM; in the test with OVCAR-8 ovarian, 0.373 µM; in the test with SR leukemia, 0.691 µM; in the test on OVCAR-5 ovarian, 1.74 µM; in the test on A549 NSCLC, 0.476 µM; in the test with UO-31 renal, 0.333 µM. Further, the GI50 was 1.52 µM in the test with 786-0 renal, 0.203 µM in the test on MCF7 breast, 1.49 µM in the test with HOP-92 NSCLC and 0.356 µM in the test with SF-539 CNS. Also, the TGI is 2.81 µM in the test with EKVX NSCLC; 1.4 µM in the test with OVCAR-8 ovarian; > 100 µM in the test with SR leukemia; 3.4 µM in the test on OVCAR-5 ovarian; 2.3 µM in the test with A549 NSCLC; 1.32 µM in the test on UO-31 renal. Moreover, the TGI in the test with 786-0 renal stood at 3.05 µM; in the test on MCF7 breast, 0.452 µM; in the test on HOP-92 NSCLC, 2.97 µM; in the test with SF-539 CNS, 1.21 µM.

As to `CCCCCCCCCCCCCCCCC1=CC(=O)C=C(OC)C1=O`, the TGI with EKVX NSCLC was > 100 µM; in the test with OVCAR-8 ovarian, > 100 µM; in the test on SR leukemia, 92.7 µM; in the test on OVCAR-5 ovarian it was > 100 µM; in the test with A549 NSCLC, > 100 µM; in the test with UO-31 renal it was > 100 µM. Further, the TGI in the test on 786-0 renal, in the test on MCF7 breast, in the test on HOP-92 NSCLC and in the test with SF-539 CNS was > 100 µM each time.

Consider `O=S(=O)(/C=C/C=C/S(=O)(=O)c1ccccc1)c1ccccc1`, for which the TGI in the test on EKVX NSCLC was 3.53 µM; in the test with OVCAR-8 ovarian, 2.12 µM and 5.95 µM; with SR leukemia it was 2.29 µM and 0.934 µM; in the test on OVCAR-5 ovarian, 5.28 µM; in the test with A549 NSCLC, 15.2 µM; in the test with UO-31 renal it was 2.92 µM and 3.32 µM. In addition, the TGI with 786-0 renal was 1.1 µM and 2.22 µM; with MCF7 breast, 3.81 µM and 2.3 µM; with HOP-92 NSCLC, 2.77 µM and 3.35 µM; in the test with SF-539 CNS it was 4.43 µM. For the same compound, the GI50 in the test with OVCAR-8 ovarian was 2.61 µM; in the test with OVCAR-5 ovarian, 1.9 µM; in the test on A549 NSCLC, 3.97 µM; in the test on 786-0 renal, 0.956 µM; in the test with MCF7 breast, 0.525 µM; in the test on SF-539 CNS, 2.14 µM.

On to `COc1ccc(-c2coc3ncnc(N)c23)cc1`, for which the GI50 in the test with EKVX NSCLC, in the test on OVCAR-8 ovarian, with SR leukemia, in the test with OVCAR-5 ovarian, in the test with A549 NSCLC and in the test on UO-31 renal was > 25 µM throughout. The GI50 was > 25 µM in the test with 786-0 renal, > 25 µM in the test on MCF7 breast, > 14 µM with HOP-92 NSCLC and > 25 µM with SF-539 CNS. Besides, the TGI in the test with EKVX NSCLC, in the test with OVCAR-8 ovarian, in the test with SR leukemia, with OVCAR-5 ovarian, in the test with A549 NSCLC and in the test on UO-31 renal was > 25 µM throughout. Further, the TGI with 786-0 renal, in the test on MCF7 breast, in the test with HOP-92 NSCLC and in the test on SF-539 CNS was > 25 µM in each case.

Turning to `Nc1ncc(-c2cnn(C3CCNCC3)c2)cc1-c1nc2ccccc2o1`, the GI50 is 4.4 µM with EKVX NSCLC; 2.59 µM in the test on OVCAR-8 ovarian; 0.266 µM with SR leukemia; 3.28 µM with OVCAR-5 ovarian; 1.2 µM in the test on A549 NSCLC; 0.714 µM with UO-31 renal. For the same compound, the GI50 in the test with 786-0 renal was 1.4 µM; in the test on MCF7 breast, 0.441 µM; with HOP-92 NSCLC, 0.553 µM; with SF-539 CNS, 1.5 µM. Also, the TGI stood at 17.8 µM with EKVX NSCLC; 8.9 µM in the test on OVCAR-8 ovarian; 1.09 µM with SR leukemia; 11.5 µM in the test with OVCAR-5 ovarian; 4.27 µM with A549 NSCLC; 2.35 µM in the test with UO-31 renal. Also, the TGI with 786-0 renal is 2.92 µM; with MCF7 breast it was 2.13 µM; with HOP-92 NSCLC, 2.05 µM; in the test on SF-539 CNS it was 2.83 µM.

Values taken from PubChem BioAssay (NCI).
